PMC12837263, “β,β-Dimethylacrylalkannin Restores Colistin Efficacy Against mcr- and TCS-Mediated Resistant Gram-Negative Bacteria via Membrane Disturbance” (Antibiotics, 2025)

Experiments:
Format in all cases: cell-based
[1] = tested on: S. Typhimurium ATCC 14028; experiment: Checkerboard assay (MIC, FICI); conditions: 14028
Protocol: (§1) The FICI of β,β-Dim–colistin combination was determined by a checkerboard assay. Briefly, two-fold serial dilutions of β,β-Dim and colistin were prepared in a 96-well plate. After incubation at 37 °C for 18 h with bacterial suspension (10^6 CFU/mL), OD600 values were measured. FICI = (MICβ,β-Dim in combination/MICβ,β-Dim) + (MICcolistin in combination/MICcolistin). The synergistic effect of β,β-Dim with other antibiotics was measured in the same way. Synergy was considered to be an FICI ≤ 0.5.

[2] = tested on: E. coli BW25113-pmrBR93P(pmrB); experiment: Checkerboard assay (MIC, FICI); conditions: BW25113-pmrBR93P
Protocol: as §1

[3] = tested on: K. pneumoniae 667(phoP、pmrA、blaKPC); experiment: Checkerboard assay (MIC, FICI); conditions: 667
Protocol: as §1

[4] = tested on: E. coli ZJ71(mcr-1); experiment: Checkerboard assay (MIC, FICI); conditions: ZJ71
Protocol: as §1

[5] = tested on: E. coli BW25113-pmrAD82N(pmrA); experiment: Checkerboard assay (MIC, FICI); conditions: BW25113-pmrAD82N
Protocol: as §1

[6] = tested on: P. aeruginosa 9(mcr-1); experiment: Checkerboard assay (MIC, FICI); conditions: P. aeruginosa 9
Protocol: as §1

[7] = tested on: E. coli pHSG299-mcr-3; experiment: Checkerboard assay (MIC, FICI); conditions: pHSG299-mcr-3
Protocol: as §1

[8] = tested on: E. coli 13f4(mcr-1); experiment: Checkerboard assay (MIC, FICI); conditions: 13f4
Protocol: as §1

[9] = tested on: K. pneumoniae 109(mcr-8); experiment: Checkerboard assay (MIC, FICI); conditions: 109
Protocol: as §1

[10] = tested on: A. baumannii ATCC 19606; experiment: Checkerboard assay (MIC, FICI); conditions: 19606
Protocol: as §1

[11] = tested on: E. coli BW25113-184; experiment: Checkerboard assay (MIC, FICI); conditions: BW25113-184
Protocol: as §1

[12] = tested on: K. pneumoniae 29(mcr-8、pmrB、blaNDM); experiment: Checkerboard assay (MIC, FICI); conditions: 29
Protocol: as §1

[13] = tested on: E. coli BW25113-184-mcr-1; experiment: Checkerboard assay (MIC, FICI); conditions: BW25113-184-mcr-1
Protocol: as §1

[14] = tested on: P. aeruginosa PAO1; experiment: Checkerboard assay (MIC, FICI); conditions: PAO1
Protocol: as §1

[15] = tested on: K. pneumoniae 20(mcr-1); experiment: Checkerboard assay (MIC, FICI); conditions: 20(mcr-1)
Protocol: as §1

[16] = tested on: K. pneumoniae 57(mcr-9、blaNDM); experiment: Checkerboard assay (MIC, FICI); conditions: 57
Protocol: as §1

[17] = tested on: K. pneumoniae 251(mgrB、phoP、pmrA、blaKPC); experiment: Checkerboard assay (MIC, FICI); conditions: 251
Protocol: as §1

[18] = tested on: K. pneumoniae 197(mcr-1、blaNDM); experiment: Checkerboard assay (MIC, FICI); conditions: 197
Protocol: as §1

[19] = tested on: E. coli ATCC 25922; experiment: Checkerboard assay (MIC, FICI); conditions: 25922
Protocol: as §1

[20] = tested on: K. pneumoniae 126(mcr-8); experiment: Checkerboard assay (MIC, FICI); conditions: 126
Protocol: as §1

[21] = tested on: S. Typhimurium 9891(mcr-1); experiment: Checkerboard assay (MIC, FICI); conditions: 9891
Protocol: as §1

[22] = tested on: K. pneumoniae 650(mgrB、phoP、pmrA、blaKPC); experiment: Checkerboard assay (MIC, FICI); conditions: 650
Protocol: as §1

[23] = tested on: K. pneumoniae 492(mcr-1、blaNDM); experiment: Checkerboard assay (MIC, FICI); conditions: 492
Protocol: as §1

[24] = tested on: K. pneumoniae ATCC 13883; experiment: Checkerboard assay (MIC, FICI); conditions: 13883
Protocol: as §1

[25] = tested on: K. pneumoniae, E. coli, Salmonella, P. aeruginosa, and A. baumannii; experiment: Checkerboard assay, panel of tested strains (summary statements); conditions: with β,β-Dim; summary over tested strains
Protocol: as §1

[26] = tested on: K. pneumoniae (including mcr-1, mcr-8, mcr-9, pmrA/B, phoP, and mgrB); experiment: Checkerboard assay, colistin-resistant K. pneumoniae (summary); conditions: with β,β-Dim
Protocol: as §1

[27] = tested on: six susceptible strains; experiment: Checkerboard assay, six susceptible strains (summary); conditions: with β,β-Dim
Protocol: as §1

[28] = tested on: K. pneumoniae 667; experiment: Bacterial growth curves; conditions: β,β-Dim 4 µg/mL, colistin 0.5 µg/mL, alone or combined; 24 h
Protocol: Overnight cultures of K. pneumoniae 667 and E. coli 13f4 were diluted to 10^6 CFU/mL; then, β,β-Dim (4 μg/mL), colistin (0.5 or 2 μg/mL), and their combination were co-incubated with bacterial suspensions in a 96-well plate. OD600 values were monitored hourly over a 24 h period.

## colistin
[1]; alone
  MIC of colistin: 1 µg/mL
[1]; fold drop of colistin MIC
  Potentation: 2
[1]; with β,β-Dim
  MIC of colistin [combination]: 0.5 µg/mL
[2]; alone
  MIC of colistin: 8 µg/mL
[2]; fold drop of colistin MIC
  Potentation: 32
[2]; with β,β-Dim
  MIC of colistin [combination]: 0.25 µg/mL
[3]; alone
  MIC of colistin: 64 µg/mL
[3]; fold drop of colistin MIC
  Potentation: 128
[3]; with β,β-Dim
  MIC of colistin [combination]: 0.5 µg/mL
[4]; alone
  MIC of colistin: 4 µg/mL
[4]; fold drop of colistin MIC
  Potentation: 8
[4]; with β,β-Dim
  MIC of colistin [combination]: 0.5 µg/mL
[5]; alone
  MIC of colistin: 16 µg/mL
[5]; fold drop of colistin MIC
  Potentation: 32
[5]; with β,β-Dim
  MIC of colistin [combination]: 0.5 µg/mL
[6]; alone
  MIC of colistin: 4 µg/mL
[6]; fold drop of colistin MIC
  Potentation: 8
[6]; with β,β-Dim
  MIC of colistin [combination]: 0.5 µg/mL
[7]; alone
  MIC of colistin: 2 µg/mL
[7]; fold drop of colistin MIC
  Potentation: 16
[8]; alone
  MIC of colistin: 4 µg/mL
[8]; fold drop of colistin MIC
  Potentation: 4
[8]; with β,β-Dim
  MIC of colistin [combination]: 1 µg/mL
[9]; alone
  MIC of colistin: 16 µg/mL
[9]; fold drop of colistin MIC
  Potentation: 64
[9]; with β,β-Dim
  MIC of colistin [combination]: 0.25 µg/mL
[10]; alone
  MIC of colistin: 0.5 µg/mL
[10]; fold drop of colistin MIC
  Potentation: 64
[10]; with β,β-Dim
  MIC of colistin [combination]: 0.0078 µg/mL
[11]; alone
  MIC of colistin: 0.125 µg/mL
[11]; fold drop of colistin MIC
  Potentation: 4
[11]; with β,β-Dim
  MIC of colistin [combination]: 0.0313 µg/mL
[12]; alone
  MIC of colistin: 64 µg/mL
[12]; fold drop of colistin MIC
  Potentation: 256
[12]; with β,β-Dim
  MIC of colistin [combination]: 0.25 µg/mL
[13]; alone
  MIC of colistin: 4 µg/mL
[13]; fold drop of colistin MIC
  Potentation: 4
[13]; with β,β-Dim
  MIC of colistin [combination]: 1 µg/mL
[14]; alone
  MIC of colistin: 1 µg/mL
[14]; fold drop of colistin MIC
  Potentation: 2
[14]; with β,β-Dim
  MIC of colistin [combination]: 0.5 µg/mL
[15]; alone
  MIC of colistin: 64 µg/mL
[15]; fold drop of colistin MIC
  Potentation: 64
[15]; with β,β-Dim
  MIC of colistin [combination]: 1 µg/mL
[16]; alone
  MIC of colistin: 2 µg/mL
[16]; fold drop of colistin MIC
  Potentation: 32
[16]; with β,β-Dim
  MIC of colistin [combination]: 0.0625 µg/mL
[17]; alone
  MIC of colistin: 512 µg/mL
[17]; fold drop of colistin MIC
  Potentation: 1024
[17]; with β,β-Dim
  MIC of colistin [combination]: 0.5 µg/mL
[18]; alone
  MIC of colistin: 4 µg/mL
[18]; fold drop of colistin MIC
  Potentation: 8
[18]; with β,β-Dim
  MIC of colistin [combination]: 0.5 µg/mL
[19]; alone
  MIC of colistin: 0.125 µg/mL
[19]; fold drop of colistin MIC
  Potentation: 4
[19]; with β,β-Dim
  MIC of colistin [combination]: 0.0313 µg/mL
[20]; alone
  MIC of colistin: > 512 µg/mL
[20]; fold drop of colistin MIC
  Potentation: 1024
[20]; with β,β-Dim
  MIC of colistin [combination]: 0.5 µg/mL
[21]; alone
  MIC of colistin: 16 µg/mL
[21]; fold drop of colistin MIC
  Potentation: 8
[21]; with β,β-Dim
  MIC of colistin [combination]: 2 µg/mL
[22]; alone
  MIC of colistin: 32 µg/mL
[22]; fold drop of colistin MIC
  Potentation: 16
[22]; with β,β-Dim
  MIC of colistin [combination]: 2 µg/mL
[23]; alone
  MIC of colistin: 4 µg/mL
[23]; fold drop of colistin MIC
  Potentation: 32
[23]; with β,β-Dim
  MIC of colistin [combination]: 0.125 µg/mL
[24]; alone
  MIC of colistin: 0.5 µg/mL
[24]; fold drop of colistin MIC
  Potentation: 4
[24]; with β,β-Dim
  MIC of colistin [combination]: 0.125 µg/mL
[25]
  colistin MIC in combination: ≤ 2 µg/mL
  reduction of colistin MIC: 4–1024 fold
[26]
  enhancement of colistin activity (MIC reduction): 8–1024 fold
[27]
  reduction of colistin MIC: 4–64 fold
[28]
  bacterial growth (growth curves): neither β,β-Dim (4 µg/mL) nor colistin (0.5 µg/mL) alone inhibited the growth
